Where “and” joins values, the source holds several entries; their conditions need not be identical. Equal entries are not always repeated.
Tested on: transformation of CPP1 to CPP2 in pooled human serum
Assay: In vitro serum calcification propensity (T50) screening assay
Assay type: biochemical
Design: key to T50: T50 in minutes (time to 50% CPP phase transition)
Conditions: for T50: one value per experiment; for activity/unit mass: mean c350 x mw (Na salt); for concentration upon which a T50 of 350 min is reached (c350), mean: mean of n experiments; for concentration upon which a T50 of 350 min is reached (c350), single experiment: one value per experiment (lab journal reference E05-E40); for Concentration at T50 = 350 min mean ± s.d. (n) (c350): pooled human serum, 10 mM calcium, 6 mM phosphate, 37 °C
Protocol: The compounds were ranked for calcification inhibition activity using a nanoparticle-based test, developed for risk stratification, which measures the propensity for calcification in patient serum. […] The time, after which 50% of CPP phase transition occurred (T50), was assessed by time-resolved spectrophotometry at 550 nm (Supplementary Fig. 1a).
The screening assay was performed as described previously. In brief, pooled human serum (H4522, Sigma-Aldrich) stored at −20 °C was thawed at 37 °C, centrifuged (10,000 × g, and 4 °C, 30 min) (5427R, Eppendorf, Switzerland), and sterile filtered (0.22 μm filter, Millipore, Merck KGaA) to remove potential cryoprecipitates (cleared human serum). The calcium solution was 40 mM CaCl2 (102382, Merck KGaA) in HBS, pH 7.4 (RT) (100 mM HEPES (H3375, Sigma-Aldrich) and 140 mM NaCl (1734712, Fisher Scientific, Hampton, NH, USA)). […] All salt solutions and buffers were double sterile filtered (0.22 µm) and pre-warmed to 37 °C prior to use. […] The plate was sealed with an adhesive film and the absorption at 550 nm was measured every 3 min with 1 min in-between shaking for a total of 300 cycles at 37 °C using the infinite M200 microplate reader (Tecan, Männedorf, Switzerland). An A550 vs. time graph was generated and T50 (min) (time at half-maximum transition from CPP1 to CPP2) values were derived by sigmoidal curve fit using Prism 8 (nonlinear regression in the log(agonist) vs. response–variable slope (four parameter mode) using the robust fit fitting method, GraphPad Software, San Diego, CA, USA). Activities between compounds were compared by generating a T50 (min) vs. concentration (µM) graph, calculating nonlinear regression and deriving the concentration required to delay T50 to 350 min (c350) using a standard equation for the dose–response curve, Eq. (1), whereby x = [compound], y = time (min), bottom = baseline response, top = maximum response, T50 = [drug] that leads to half-maximum response, and the hill slope is a factor that describes the steepness of the curve.1 y= bottom+top - bottom/1+T50/x^hillslope.

| Compound | T50 (concentration 1 μM) | T50 (concentration 3 μM) | T50 (concentration 5 μM) | T50 (concentration 10 μM) | activity/unit mass [mg/L] | concentration upon which a T50 of 350 min is reached (c350), mean [µM] | concentration upon which a T50 of 350 min is reached (c350), single experiment | Concentration at T50 = 350 min mean ± s.d. (n) (c350) | T50 (concentration 15 μM) | T50 (concentration 30 μM) | T50 (concentration 0.3 μM) | T50 (concentration 50 μM) | Concentration at T50 = 350 min mean ± s.d. (n) (c350) (listed as (±)-2-O-(methoxy-diethyleneglycol)-myo-inositol-1,2,3,5,6-pentakis(phosphate)) [mg/L] | c350 (unit not printed in the sentence (equals mg/L column of rebuttal Table 1)) | T50 (concentration 0.246 μM) | T50 (concentration 0.82 μM) | T50 (concentration 1.6 μM) | T50 (concentration 2.46 μM) | T50 (concentration 4.1 μM) | T50 (concentration 8.2 μM) |
| --- | --- | --- | --- | --- | --- | --- | --- | --- | --- | --- | --- | --- | --- | --- | --- | --- | --- | --- | --- | --- |
| COCCOCCOCCOCCOCCOCCOCCO[C@H]1[C@H](OP(=O)(O)O)[C@H](OCCOCCOCCOCCOCCOCCOCCOC)[C@H](OP(=O)(O)O)[C@@H](OCCOCCOCCOCCOCCOCCOCCOC)[C@@H]1OP(=O)(O)O [(OEG7)3-IP3, 2,4,6-Tri-O-(methoxy-heptaethyleneglycol)-myo-inositol-1,3,5-tris(phosphate)] | 258.7 and 237.667 and 205.767 | 289.967 and 270.1 and 251.367 | 303.667 and 291.2 and 260.633 | 364.467 and 352.533 and 355.7 | 14.33 | 9.4 | 8.7 µM and 9.8 µM | 9.4 ± 0.6 (3) µM and 14.3 ± 1.0 (3) mg/L |  |  |  |  |  |  |  |  |  |  |  |  |
| CC(O)(P(=O)(O)O)P(=O)(O)O [Etidronate, etidronate] | 222.567 and 215.333 and 215.167 | 248.167 and 245.7 and 237.9 | 290 and 263.6 and 286.233 | 321.233 and 361.6 | 2.61 | 10.5 | 9.9 µM and 11.5 µM and 11.3 µM and 9.1 µM | 10.5 ± 1.1 (4) µM and 2.6 ± 0.3 (4) mg/L | 433.033 and 458.567 | 729.533 |  |  |  |  |  |  |  |  |  |  |
| COCCOCCOCCOCCOCCOCCOCCO[C@@H]1[C@@H](OP(=O)(O)O)[C@H](OCCOCCOCCOCCOCCOCCOCCOC)[C@@H](OP(=O)(O)O)[C@@H](OP(=O)(O)O)[C@H]1OP(=O)(O)O [(OEG7)2-IP4, 4,6-Di-O-(methoxy-heptaethyleneglycol)-myo-inositol-1,2,3,5-tetrakis(phosphate)] | 243.55 and 226.667 and 233.367 | 297.4 and 271.533 and 282.8 |  | 754.35 and 624.433 and 692.333 | 5.96 | 4.5 | 4.1 µM and 4.9 µM and 4.5 µM | 4.5 ± 0.4 (3) µM and 6.0 ± 0.6 (3) mg/L |  |  | 217.433 and 203.2 and 207.5 |  |  |  |  |  |  |  |  |  |
| O=P(O)(O)O[C@@H]1[C@H](O)[C@H](O)[C@@H](OP(=O)(O)O)[C@H](OP(=O)(O)O)[C@H]1O [IP3, myo-Inositol-1,4,5-triphosphate] | 226 and 227.733 and 222.3 | 236 and 220.433 and 234.133 |  | 306.433 and 280.567 and 269.467 |  | 18.6 | 15.5 µM and 18.6 µM and 21.6 µM | 18.6 ± 3.1 (3) µM and 10.2 ± 1.7 (3) mg/L |  | 515.9 and 500.567 and 450.3 |  | 814.5 and 889.4 and 828.767 |  |  |  |  |  |  |  |  |
| COCCOCCO[C@H]1[C@@H](OP(=O)(O)O)[C@H](OP(=O)(O)O)[C@@H](OP(=O)(O)O)[C@H](OP(=O)(O)O)[C@H]1OP(=O)(O)O [2-mono-OEG2-IP5, (±)-2-O-(methoxy-diethyleneglycol)-myo-inositol-1,2,3,5,6-pentakis(phosphate)] |  |  |  |  |  |  |  | 8.8 ± 0.1 µM |  |  |  |  | 7.9 ± 0.1 | 7.9 ± 0.1 |  |  |  |  |  |  |
| COCCOCCOCCOCCOCCOCCOCCOCCOCCOCCOCCOCCO[C@@H]1[C@@H](OP(=O)(O)O)[C@H](OP(=O)(O)O)[C@@H](OP(=O)(O)O)[C@@H](OP(=O)(O)O)[C@H]1OP(=O)(O)O (racemic) [OEG12-IP5, (±)-6-O-(methoxy-dodecaethyleneglycol)-myo-inositol-1,2,3,4,5-pentakis(phosphate)] |  |  |  |  | 6.58 | 4.9 | 6.0 µM and 4.6 µM and 4.9 µM and 4.4 µM | 4.9 ± 0.6 (5) µM and 6.6 ± 0.9 (5) mg/L |  |  |  |  |  |  | 217.233 and 225.267 | 258.4 and 206.7 and 222.1 and 217.5 and 256.667 | 275.15 and 220.7 | 260.5 and 282.167 | 332.45 and 282.35 and 325.75 and 315.4 and 340 | 493.7 and 442.3 and 481.45 and 498.1 and 499.967 |
| O=P(O)(O)O[C@@H]1[C@H](OP(=O)(O)O)[C@H](OP(=O)(O)O)[C@@H](O)[C@H](OP(=O)(O)O)[C@H]1OP(=O)(O)O [IP5, myo-Inositol-1,2,3,5,6-pentakisphosphate] | 220.367 and 229.167 and 217.95 | 240.433 and 226.567 |  | 286.067 and 304.933 and 322.1 |  | 13.2 | 14.6 µM and 12.1 µM and 12.9 µM | 13.2 ± 1.3 (3) µM and 10.5 ± 1.0 (3) mg/L | 373.933 | 702.867 and 723.533 and 709.1 |  |  |  |  |  |  |  |  |  |  |
| O=P(O)(O)O[C@@H]1[C@@H](O)[C@@H](OP(=O)(O)O)[C@@H](O)[C@H](O)[C@H]1O [IP2, myo-Inositol-2,4-diphosphate] | 228.333 and 230.233 and 205.967 | 236.4 and 226.467 and 221.933 |  | 274.433 and 257.367 and 241.267 |  | 35.0 | 27.3 µM and 35.1 µM and 42.7 µM | 35.0 ± 7.7 (3) µM and 15.0 ± 3.3 (3) mg/L |  | 358.8 and 323.1 and 304.6 |  | 407.867 and 425.367 and 375.7 |  |  |  |  |  |  |  |  |

Source: paper PMC7002685, “Inhibition of vascular calcification by inositol phosphates derivatized with ethylene glycol oligomers” (Nature Communications, 2020)
